Reference: patent US20220378707A1, “1-(((2S,3S,4S)-3-ETHYL-4-FLUORO-5-OXOPYRROLIDIN-2-YL)METHOXY)-7-METHOXYISOQUINOLINE-6-CARBOXAMIDE COMBINATIONS AND ORAL DOSAGE FORMS” (Pfizer Inc., priority 2019, published 2022)

What was measured:
[1] = Particle size of PF-06650833 by milling process; format: physicochemical; conditions: PF-06650833 particles
[2] = system: HDFn+(IL-1β, TNFα, IFNγ, EGF, bFGF and PDGF-BB); assay: BioMAP HDF3CGF system; format: cell-based, human; conditions: wound healing, Th1-type inflammation; concentrations of FIGS. 12-16
Excerpt: (§1) The BioMAP systems consist of human primary cell-based systems designed to model different aspects of the human body in an in vitro format. The 12 systems tested characterized the test compounds across a broad set of systems modeling various human disease states. BioMAP systems were constructed with one or more primary cell types from healthy human donors, with stimuli (such as cytokines or growth factors) added to capture relevant signaling networks that naturally occur in human tissue or pathological conditions. Vascular biology was modeled in both a Th1 (3C system) and a Th2 (4H system) inflammatory environment, as well as in a Th1 inflammatory state specific to arterial smooth muscle cells (CASM3C system). Additional systems recapitulated aspects of the systemic immune response that included monocyte-driven Th1 inflammation (LPS system) or T cell stimulation (SAg system), chronic Th1 inflammation driven by macrophage activation (IMphg system) and the T cell-dependent activation of B cells that occurs in germinal centers (BT system). The BE3C system (Th1) and the BF4T system (Th2) represented airway inflammation of the lung, while the MyoF system modeled myofibroblast-lung tissue remodeling. Lastly, skin biology was addressed in the KF3CT system modeled Th1 cutaneous inflammation and the HDF3CGF system modeled wound healing.
(§2) All cells were from a pool of multiple donors (n=2-6), commercially purchased and handled according to the recommendations of the manufacturers. Human blood derived CD14+ monocytes were differentiated into macrophages in vitro before being added to the IMphg system. Abbreviations were used as follows: human umbilical vein endothelial cells (HUVEC), peripheral blood mononuclear cells (PBMC), human neonatal dermal fibroblasts (HDFn), B cell receptor (BCR), T cell receptor (TCR) and toll-like receptor (TLR). Cell types and stimuli used in each system were as follows:
(§3) 3C system [HUVEC+(IL-1β, TNFα and IFNγ)]; 4H system [HUVEC+(IL-4 and histamine)]; LPS system [PBMC and HUVEC+LPS (TLR4 ligand)]; SAg system [PBMC and HUVEC+T cell receptor (TCR) ligands]; BT system [CD19+B cells and PBMC+(α-IgM and TCR ligands)]; BF4T system [bronchial epithelial cells and HDFn+(TNFα and IL-4)]; BE3C system [bronchial epithelial cells+(IL-1p, TNFα and IFNγ)]; CASM3C system [coronary artery smooth muscle cells+(IL-1p, TNFα and IFNγ)]; HDF3CGF system [HDFn+(IL-1β, TNFα, IFNγ, EGF, bFGF and PDGF-BB)]; KF3CT system [keratinocytes and HDFn+(IL-1β, TNFα and IFNγ)]; MyoF system [differentiated lung myofibroblasts+(TNFα and TGFβ)]; and IMphg system [HUVEC and M1 macrophages+Zymosan (TLR2 ligand)].
Systems were derived from either single cell types or co-culture systems. Adherent cell types were cultured in 96 or 384-well plates until confluence, followed by the addition of PBMC (SAg and LPS systems). […] Test agents were prepared in DMSO (final concentration <0.1%) and were added 1 hour before stimulation, and remained in culture for 24 hours or as otherwise indicated (48-hrs, MyoF system; 72-hrs, BT system (soluble readouts); 168-hrs, BT system (secreted IgG)). […] Soluble factors from supernatants were quantified using either HTRF® detection, bead-based multiplex immunoassay or capture ELISA. Overt adverse effects of test agents on cell proliferation and viability (cytotoxicity) were detected by sulforhodamine B (SRB) staining, for adherent cells, and alamarBlue® reduction for cells in suspension.

[3] = system: PBMC and HUVEC+T cell receptor (TCR) ligands; assay: BioMAP SAg system; format: cell-based, human; conditions: for Inhibition of biomarker readouts in the SAg system: T cell-driven Th1 vascular inflammation, concentrations of FIGS. 12-16
Excerpt: as §1, §2, §3
(§4) Systems were derived from either single cell types or co-culture systems. Adherent cell types were cultured in 96 or 384-well plates until confluence, followed by the addition of PBMC (SAg and LPS systems). The BT system consisted of CD19+B cells co-cultured with PBMC and stimulated with a BCR activator and low levels of TCR stimulation. Test agents were prepared in DMSO (final concentration <0.1%) and were added 1 hour before stimulation, and remained in culture for 24 hours or as otherwise indicated (48-hrs, MyoF system; 72-hrs, BT system (soluble readouts); 168-hrs, BT system (secreted IgG)). Each plate contained drug controls (e.g., legacy control test agent colchicine at 1.1 μM), negative controls (e.g., non-stimulated conditions) and vehicle controls (e.g., 0.1% DMSO) appropriate for each system. Direct ELISA was used to measure biomarker levels of cell-associated and cell membrane targets. Soluble factors from supernatants were quantified using either HTRF® detection, bead-based multiplex immunoassay or capture ELISA. Overt adverse effects of test agents on cell proliferation and viability (cytotoxicity) were detected by sulforhodamine B (SRB) staining, for adherent cells, and alamarBlue® reduction for cells in suspension.

[4] = system: PBMC and HUVEC+LPS (TLR4 ligand); assay: BioMAP LPS system; format: cell-based, human; conditions: monocyte-driven Th1 inflammation, concentrations of FIGS. 12-14
Excerpt: as §1, §2, §3
as §4, with “suspension. […]” for “suspension.”

[5] = system: CD19+B cells and PBMC+(α-IgM and TCR ligands); assay: BioMAP BT system; format: cell-based, human; conditions: for Inhibition of biomarker readouts in the BT system: T cell dependent B cell activation, concentrations of FIGS. 12-14; for B cell proliferation in the BT system: concentrations of FIGS. 13-14
Excerpt: as §1, §2, §3
as §4, with “suspension. […]” for “suspension.”

[6] = system: human primary cell-based systems; assay: BioMAP panel of 12 systems; conditions: BioMAP profile, PF-06651600 200-5400 nM
Excerpt: as §1, §2, §3
as §4, with “suspension. […]” for “suspension.”

[7] = Combination oral pharmacokinetic study of PF-06651600 and PF-06650833 in rat; conditions: male Wistar Han rat, PF-06651600 10 and 50 mg/kg, PF-06650833 30 and 100 mg/kg
Protocol: Doses of 1-((2S,5R)-5-((7H-pyrrolo[2,3-d]pyrimidin-4-yl)amino)-2-methylpiperidin-1-yl)prop-2-en-1-one were 10 and 50 mg/kg and 1-(((2S,3S,4S)-3-ethyl-4-fluoro-5-oxopyrrolidin-2-yl)methoxy)-7-methoxyisoquinoline-6-carboxamide were 30 and 100 mg/kg in male Wistar Han.

[8] = listed as 1-((2S,5R)-5-((7H-Pyrrolo[2,3-d]pyrimidin-4-yl)amino)-2-methylpiperidin-1-yl)pro
[9] = listed as 1-((2S,5R)-5-((7H-pyrrolo[2,3-d]pyrimidin-4-yl)amino)-2-methylpiperidin-1-yl)pro

| SMILES | Particle size D[4, 3] [1] | Particle size D[v, 0.1] [1] | Particle size D[v, 0.5] [1] | Particle size D[v, 0.9] [1] | Inhibition of biomarker readouts in the HDF3CGF system [2] | Inhibition of biomarker readouts in the SAg system [3, 8] | Inhibition of biomarker readouts in the SAg system [3, 9] | Proliferation of T cells in the SAg system ([3]; concentrations of FIGS. 13-14) | Inhibition of biomarker readouts in the LPS system [4, 8] | Inhibition of biomarker readouts in the LPS system [4, 9] | Inhibition of biomarker readouts in the BT system [5, 8] | Inhibition of biomarker readouts in the BT system [5, 9] | B cell proliferation in the BT system [5, 8] | B cell proliferation in the BT system [5, 9] | Immunomodulatory activities: Decreased Activity ([6]; PF-06650833 19-500 nM, tofacitinib 37-1000 nM) | Tissue Remodeling Activities: Decreased Activity [6] | Effects of PF-06650833 on the pharmacokinetics of PF-06651600 [7] |
| --- | --- | --- | --- | --- | --- | --- | --- | --- | --- | --- | --- | --- | --- | --- | --- | --- | --- |
| CC[C@@H]1[C@H](F)C(=O)N[C@@H]1COc1nccc2cc(C(N)=O)c(OC)cc12 [Unmilled, 1-(((2S,3S,4S)-3-Ethyl-4-fluoro-5-oxopyrrolidin-2-yl)methoxy)-7-methoxyisoquinoline-6-carboxamide] | 28.4 μm | 4.6 μm | 22.3 μm | 61.6 μm | – | – | – | – | – | – | – | – | – | – | – | – | – |
| CC[C@@H]1[C@H](F)C(=O)N[C@@H]1COc1nccc2cc(C(N)=O)c(OC)cc12 [Jetmilled, 1-(((2S,3S,4S)-3-Ethyl-4-fluoro-5-oxopyrrolidin-2-yl)methoxy)-7-methoxyisoquinoline-6-carboxamide] | 4.6 μm | 0.7 μm | 3.9 μm | 9.6 μm | – | – | – | – | – | – | – | – | – | – | – | – | – |
| CC[C@@H]1[C@H](F)C(=O)N[C@@H]1COc1nccc2cc(C(N)=O)c(OC)cc12 [Fitzmilled, 1-(((2S,3S,4S)-3-Ethyl-4-fluoro-5-oxopyrrolidin-2-yl)methoxy)-7-methoxyisoquinoline-6-carboxamide] | 17.0 μm | 2.0 μm | 10.0 μm | 35.0 μm | – | – | – | – | – | – | – | – | – | – | – | – | – |
| C=CC(=O)N1C[C@H](Nc2ncnc3[nH]ccc23)CC[C@@H]1C [PF-06651600, 1-((2S,5R)-5-((7H-Pyrrolo[2,3-d]pyrimidin-4-yl)amino)-2-methylpiperidin-1-yl)prop-2-en-1-one] | – | – | – | – | PA-I | IL-8 | sIL-s8 levels were reduced | inhibited | TNFα | sTNFα levels were reduced | sIgG, sIL-17A, sIL-17F, sIL-6, and TNFα | sIgG, sIL-17A, sIL-17F, sIL-6, and sTNFα | inhibited | B cell anti-proliferative activity | *sIgG, B cell proliferation, T cell proliferation | PAI-I | no significant effects |
